Assay results reported in PubChem BioAssay (NCI).
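Exposure lasted 48 hours, with cells grown in 96-well plates and compounds tested at five concentrations. The concentration for 50% growth inhibition is given as GI50. TGI denotes the concentration required for complete inhibition of growth.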

What was measured:
Test in all cases: NCI tumour cell line growth inhibition, 48 h
[1] = system: M14 melanoma
[2] = system: MALME-3M melanoma
[3] = system: RXF 393 renal
[4] = system: IGROV1 ovarian
[5] = system: SF-295 CNS
[6] = system: ACHN renal
[7] = system: SR leukemia
[8] = system: NCI-H226 lung
[9] = system: MOLT-4 leukemia
[10] = system: NCI-H522 lung

| SMILES | GI50 [1] [µM] | TGI [1] [µM] | GI50 [2] [µM] | TGI [2] [µM] | GI50 [3] [µM] | TGI [3] [µM] | GI50 [4] [µM] | TGI [4] [µM] | GI50 [5] [µM] | TGI [5] [µM] | GI50 [6] [µM] | TGI [6] [µM] | GI50 [7] [µM] | TGI [7] [µM] | GI50 [8] [µM] | TGI [8] [µM] | GI50 [9] [µM] | TGI [9] [µM] | GI50 [10] [µM] | TGI [10] [µM] |
| --- | --- | --- | --- | --- | --- | --- | --- | --- | --- | --- | --- | --- | --- | --- | --- | --- | --- | --- | --- | --- |
| CON | > 100 | > 100 | > 100 | > 100 | > 100 | > 100 | > 100 | > 100 | > 100 | > 100 | > 100 | > 100 | > 100 | > 100 | > 100 | > 100 | > 100 | > 100 | > 100 | > 100 |
| O=C(Nc1ccc(S(=O)(=O)NC2CCCCCC2)cc1)C(c1ccccc1)S(=O)(=O)c1ccc(F)cc1 (stereo not given) | 0.514 | 2.55 | 0.25 | 1.81 | 0.217 | 0.562 | 0.237 | 2.89 | 0.349 | 2.92 | 0.153 | 0.491 | 0.41 | 4.42 | 0.39 | 3.43 | 0.432 | > 100 | 0.318 | 2.94 |
| Cc1c(N2C(=O)/C(=C\c3ccc(N(C)C)cc3)N=C2c2ccccc2)c(=O)n(-c2ccccc2)n1C | > 100 | > 100 | > 100 | > 100 | > 100 | > 100 | 24.1 | > 100 | 92 | > 100 | > 100 | > 100 | 58.8 | > 100 | 72.2 | > 100 | 7.85 | > 100 | 67.8 | > 100 |
| C[C@@H]1CN2[C@H]3[C@@H]1CC[C@]31CCC(=O)O[C@]1(C)[C@@H]1CC[C@H]3CCC=C3[C@@H]12 | > 70 | > 70 | > 70 | > 70 | > 70 | > 70 | > 70 | > 70 | > 70 | > 70 | > 70 | > 70 | > 70 | > 70 | > 70 | > 70 | > 70 | > 70 | > 70 | > 70 |
| O=C1CCC(=O)C(C(=O)CCC(=O)Nc2cccc(Cl)c2)C1 (stereo not given) |  | > 100 |  | > 100 |  | > 100 |  | > 100 |  | > 100 |  | > 100 |  | > 100 |  | > 100 |  | > 100 |  | > 100 |
| COc1ccc(-n2sc(=O)n(Cc3ccc(COC(=O)C(C)c4ccc(CC(C)C)cc4)cc3)c2=O)cc1 (stereo not given) | 2.6 | 9.45 | 1.04 | 2.3 | 1.27 | 3.79 | 1.4 | 4.74 | 10.6 | 24.1 | 0.996 | 2.05 | 1.46 | 50 | 11.9 | 33.2 | 1.21 | 3.89 | 0.994 | 2.25 |
| OC1C2C=CCC1CCC2 (stereo not given) |  | > 100 |  | > 100 |  | > 100 |  | > 100 |  | > 100 |  | > 100 |  | > 100 |  | > 100 |  | > 100 |  | > 100 |
| CCCCCCC1N=C(N)N=C(N)N1c1ccc(Cl)cc1 (stereo not given) | 3.04 | 23.5 | 2.1 | 21 | 10.6 | 38.6 | 3.53 | 17.4 | 2.58 | 17.6 | > 100 | > 100 | 3 | 11.9 | 13.2 | 54.2 | 7.03 | 32.5 | 6.53 | 22.2 |
| Cc1cccnc1CNC1CC(NCc2ncccc2C)CC(NCc2ncccc2C)C1 (stereo not given) | 1.96 | 4.35 | 2.84 | 9.46 | 1.92 | 3.9 | 3.89 | 40.3 | 3.12 | 8.6 | 3.22 | 11.2 | 0.406 | 2.09 | 1.65 | 3.17 | 2.72 | 5.38 | 2.69 | 12.2 |
| CCc1ccccc1-n1c(N)c(C#N)c(-c2ccc(OC)c(OC)c2)c(C#N)c1=O | 19.7 | 56 | 17.4 | 40.4 | 16.3 | 35.3 | 19.5 | 60 | 22.4 | 61.1 | 19.7 | 53.7 | 15 | > 100 | 17.1 | 41.8 | > 100 | > 100 | 19 | 44.8 |
| CSc1ccc(C2=NN(C(=O)c3ccc(N)cc3)C(c3ccc(F)cc3)C2)cc1 (stereo not given) | 4.24 | 15.1 | 8.09 | 23 | 17.7 | 34.1 | 4.37 | 25.5 | 13.2 | 27.9 | 7.35 | 19.7 | 1.52 | 4.31 | 11 | 29.6 | 10.5 | 38.2 | 13.8 | 30.9 |
| COc1cc(C2C(C#N)=C(N)Oc3cc4c(cc32)OCO4)cc2c1OCO2 (stereo not given) | 0.418 | > 100 | 2.67 | > 100 | 0.146 | 0.546 | 0.724 | > 100 | 0.209 | > 100 | 2.3 | > 100 | 0.0696 | > 100 | 0.273 | 4.59 | 0.935 | 49.5 | 0.0926 | 2.72 |
| N#Cc1c(Oc2ccc(F)c(NC(=O)Cc3cccc(C(F)(F)F)c3)c2)ccc2nc(NC(=O)C3CC3)sc12 | 0.0275 | 2.95 | 0.0101 | 0.0476 | 1.31 | 5.39 | 0.94 | > 44.7 | 0.579 | > 100 | 0.801 | > 100 | 0.672 | > 100 | 0.838 | > 100 | 0.673 | > 100 | 0.942 | > 25 |
